Source: ChEMBL document CHEMBL4507299, “Data for DCP probe PF-04554878” (2021)

Key:
[1] = molecular target: Wee1-like protein kinase (Homo sapiens) (UniProt P30291)
[2] = molecular target: Calcium/calmodulin-dependent protein kinase type 1D (Homo sapiens) (UniProt Q8IU85)
[3] = molecular target: Calcium/calmodulin-dependent protein kinase type II subunit gamma (Homo sapiens) (UniProt Q13555)
[4] = molecular target: Dual specificity tyrosine-phosphorylation-regulated kinase 2 (Homo sapiens) (UniProt Q92630)
[5] = molecular target: Dual serine/threonine and tyrosine protein kinase (Homo sapiens) (UniProt Q6XUX3)
[6] = molecular target: Eukaryotic translation initiation factor 2-alpha kinase 1 (Homo sapiens) (UniProt Q9BQI3)
[7] = molecular target: Bone morphogenetic protein receptor type-1B (Homo sapiens) (UniProt O00238)
[8] = molecular target: T1, Aurora kinase A (Homo sapiens) (UniProt O14965)
T1 sequence (whole entry): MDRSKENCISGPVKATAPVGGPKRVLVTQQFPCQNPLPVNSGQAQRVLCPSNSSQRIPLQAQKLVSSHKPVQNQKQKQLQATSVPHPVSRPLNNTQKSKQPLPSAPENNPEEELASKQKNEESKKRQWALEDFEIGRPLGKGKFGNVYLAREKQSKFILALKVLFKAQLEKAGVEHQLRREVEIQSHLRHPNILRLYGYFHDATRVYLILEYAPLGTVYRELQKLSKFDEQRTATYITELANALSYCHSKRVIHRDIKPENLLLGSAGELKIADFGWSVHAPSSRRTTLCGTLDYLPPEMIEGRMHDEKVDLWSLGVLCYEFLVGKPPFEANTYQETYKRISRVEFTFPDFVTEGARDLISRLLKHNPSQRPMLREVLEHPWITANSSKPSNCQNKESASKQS

[9] = molecular target: Ephrin type-A receptor 8 (Homo sapiens) (UniProt P29322)
[10] = molecular target: Insulin-like growth factor 1 receptor (Homo sapiens) (UniProt P08069)
[11] = molecular target: Discoidin domain-containing receptor 2 (Homo sapiens) (UniProt Q16832)
[12] = molecular target: Activin receptor type-1B (Homo sapiens) (UniProt P36896)
[13] = molecular target: G protein-coupled receptor kinase 4 (Homo sapiens) (UniProt P32298)
[14] = molecular target: Aurora kinase C (Homo sapiens) (UniProt Q9UQB9)
[15] = molecular target: Mitogen-activated protein kinase kinase kinase 1 (Homo sapiens) (UniProt Q13233)
[16] = system: Tyrosine-protein kinase ABL1 (Homo sapiens), P00519 [H396P]
[17] = molecular target: Cyclin-dependent kinase 4 (Homo sapiens) (UniProt P11802)
[18] = molecular target: Ephrin type-A receptor 7 (Homo sapiens) (UniProt Q15375)
[19] = molecular target: Cyclin-dependent kinase 17 (Homo sapiens) (UniProt Q00537)
[20] = molecular target: Tyrosine-protein kinase Srms (Homo sapiens) (UniProt Q9H3Y6)
[21] = molecular target: Serine/threonine-protein kinase mTOR (Homo sapiens) (UniProt P42345)
[22] = molecular target: Alpha-1B adrenergic receptor (Homo sapiens) (UniProt P35368); settings: Compound concentration 10.0 uM
[23] = molecular target: RAC-gamma serine/threonine-protein kinase (Homo sapiens) (UniProt Q9Y243)
[24] = molecular target: Insulin receptor (Homo sapiens) (UniProt P06213)
[25] = molecular target: Activin receptor type-2B (Homo sapiens) (UniProt Q13705)
[26] = molecular target: Homeodomain-interacting protein kinase 2 (Homo sapiens) (UniProt Q9H2X6)
[27] = molecular target: Cyclin-dependent kinase 3 (Homo sapiens) (UniProt Q00526)
[28] = molecular target: Cyclin-dependent kinase-like 1 (Homo sapiens) (UniProt Q00532)
[29] = molecular target: Homeodomain-interacting protein kinase 4 (Homo sapiens) (UniProt Q8NE63)
[30] = molecular target: cAMP-dependent protein kinase catalytic subunit PRKX (Homo sapiens) (UniProt P51817)
[31] = molecular target: Interleukin-1 receptor-associated kinase 4 (Homo sapiens) (UniProt Q9NWZ3)
[32] = molecular target: Tyrosine-protein kinase ZAP-70 (Homo sapiens) (UniProt P43403)
[33] = molecular target: Cyclin-dependent kinase 4 (Homo sapiens) (UniProt P11802); remark: listed apart in the source
[34] = molecular target: 5-hydroxytryptamine receptor 1B (Homo sapiens) (UniProt P28222); settings: Compound concentration 10.0 uM
[35] = molecular target: Serine/threonine-protein kinase PLK1 (Homo sapiens) (UniProt P53350)
[36] = molecular target: Serine/threonine-protein kinase MARK1 (Homo sapiens, UniProt Q9P0L2)
[37] = system: Tyrosine-protein kinase ABL1 (Homo sapiens), P00519 [F317L]
[38] = molecular target: Mitotic checkpoint serine/threonine-protein kinase BUB1 (Homo sapiens) (UniProt O43683)
[39] = molecular target: Serine/threonine-protein kinase PAK 4 (Homo sapiens) (UniProt O96013)
[40] = molecular target: Ephrin type-A receptor 6 (Homo sapiens) (UniProt Q9UF33)
[41] = Compound concentration 100.0 nM
[42] = Compound concentration 1000.0 nM

Sequence of Cyclin-dependent kinase 4 (Homo sapiens) (P11802 whole entry): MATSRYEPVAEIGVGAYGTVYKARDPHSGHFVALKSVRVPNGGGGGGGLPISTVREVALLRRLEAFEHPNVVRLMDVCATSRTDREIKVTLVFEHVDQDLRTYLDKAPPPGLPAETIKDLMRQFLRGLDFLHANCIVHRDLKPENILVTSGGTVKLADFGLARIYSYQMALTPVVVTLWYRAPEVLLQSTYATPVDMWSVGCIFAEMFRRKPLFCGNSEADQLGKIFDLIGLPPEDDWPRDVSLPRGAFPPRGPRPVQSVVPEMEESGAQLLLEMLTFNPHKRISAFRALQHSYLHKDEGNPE
Sequence of Mitogen-activated protein kinase kinase kinase 1 (Homo sapiens) (Q13233 whole entry): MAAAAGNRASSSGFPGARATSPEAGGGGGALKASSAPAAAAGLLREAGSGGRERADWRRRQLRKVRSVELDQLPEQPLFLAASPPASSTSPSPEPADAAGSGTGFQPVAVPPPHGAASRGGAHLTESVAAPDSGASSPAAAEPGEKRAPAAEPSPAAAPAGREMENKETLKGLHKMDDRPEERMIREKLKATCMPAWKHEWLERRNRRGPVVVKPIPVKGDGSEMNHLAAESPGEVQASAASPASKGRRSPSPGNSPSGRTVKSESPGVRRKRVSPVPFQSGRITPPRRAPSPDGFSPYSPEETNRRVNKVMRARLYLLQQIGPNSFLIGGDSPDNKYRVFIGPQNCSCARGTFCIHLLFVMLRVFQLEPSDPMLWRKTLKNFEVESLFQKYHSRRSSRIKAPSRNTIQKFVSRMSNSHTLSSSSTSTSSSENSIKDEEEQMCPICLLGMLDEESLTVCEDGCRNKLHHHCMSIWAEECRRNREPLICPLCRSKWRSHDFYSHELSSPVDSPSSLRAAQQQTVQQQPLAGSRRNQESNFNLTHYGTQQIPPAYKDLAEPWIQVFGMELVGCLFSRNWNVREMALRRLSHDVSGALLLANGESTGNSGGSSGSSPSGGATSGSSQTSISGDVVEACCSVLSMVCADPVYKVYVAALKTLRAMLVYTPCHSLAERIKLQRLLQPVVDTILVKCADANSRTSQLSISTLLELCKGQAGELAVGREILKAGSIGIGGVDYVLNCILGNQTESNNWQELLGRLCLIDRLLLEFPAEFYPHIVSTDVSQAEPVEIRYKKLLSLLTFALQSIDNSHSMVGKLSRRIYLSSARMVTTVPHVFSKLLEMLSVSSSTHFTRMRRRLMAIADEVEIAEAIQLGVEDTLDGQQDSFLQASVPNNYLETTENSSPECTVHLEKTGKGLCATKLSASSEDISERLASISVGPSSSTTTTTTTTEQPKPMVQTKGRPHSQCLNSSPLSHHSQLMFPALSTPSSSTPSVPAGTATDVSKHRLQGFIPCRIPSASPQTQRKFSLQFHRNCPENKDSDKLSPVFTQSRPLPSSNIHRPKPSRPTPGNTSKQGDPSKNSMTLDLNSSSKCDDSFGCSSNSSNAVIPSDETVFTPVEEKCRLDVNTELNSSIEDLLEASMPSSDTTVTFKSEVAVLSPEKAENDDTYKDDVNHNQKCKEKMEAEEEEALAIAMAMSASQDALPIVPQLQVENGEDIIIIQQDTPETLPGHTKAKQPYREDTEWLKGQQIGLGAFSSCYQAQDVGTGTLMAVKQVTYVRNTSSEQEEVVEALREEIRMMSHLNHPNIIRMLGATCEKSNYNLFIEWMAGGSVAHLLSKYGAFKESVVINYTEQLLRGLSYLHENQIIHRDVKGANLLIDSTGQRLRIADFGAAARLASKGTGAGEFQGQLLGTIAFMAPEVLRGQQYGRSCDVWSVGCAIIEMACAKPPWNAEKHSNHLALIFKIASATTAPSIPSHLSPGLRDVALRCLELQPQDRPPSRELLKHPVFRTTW
Sequence of Homeodomain-interacting protein kinase 4 (Homo sapiens) (Q8NE63 whole entry): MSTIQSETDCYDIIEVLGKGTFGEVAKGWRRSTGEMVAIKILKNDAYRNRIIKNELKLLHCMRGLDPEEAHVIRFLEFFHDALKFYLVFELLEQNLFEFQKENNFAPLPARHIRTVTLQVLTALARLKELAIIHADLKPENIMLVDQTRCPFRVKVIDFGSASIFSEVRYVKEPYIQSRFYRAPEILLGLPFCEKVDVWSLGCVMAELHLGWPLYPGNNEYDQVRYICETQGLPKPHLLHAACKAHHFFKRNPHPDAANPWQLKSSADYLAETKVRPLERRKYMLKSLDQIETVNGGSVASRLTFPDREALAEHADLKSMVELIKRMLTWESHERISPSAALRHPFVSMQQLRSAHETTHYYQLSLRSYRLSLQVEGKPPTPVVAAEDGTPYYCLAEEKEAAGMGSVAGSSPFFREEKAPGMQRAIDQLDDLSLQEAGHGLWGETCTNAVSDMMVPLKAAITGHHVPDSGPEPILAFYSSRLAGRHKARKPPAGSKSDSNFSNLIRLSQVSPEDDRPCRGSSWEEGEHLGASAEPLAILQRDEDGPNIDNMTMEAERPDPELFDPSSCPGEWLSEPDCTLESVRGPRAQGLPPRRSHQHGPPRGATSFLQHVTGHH
Sequence of Insulin-like growth factor 1 receptor (Homo sapiens) (P08069 31-736 limits assumed): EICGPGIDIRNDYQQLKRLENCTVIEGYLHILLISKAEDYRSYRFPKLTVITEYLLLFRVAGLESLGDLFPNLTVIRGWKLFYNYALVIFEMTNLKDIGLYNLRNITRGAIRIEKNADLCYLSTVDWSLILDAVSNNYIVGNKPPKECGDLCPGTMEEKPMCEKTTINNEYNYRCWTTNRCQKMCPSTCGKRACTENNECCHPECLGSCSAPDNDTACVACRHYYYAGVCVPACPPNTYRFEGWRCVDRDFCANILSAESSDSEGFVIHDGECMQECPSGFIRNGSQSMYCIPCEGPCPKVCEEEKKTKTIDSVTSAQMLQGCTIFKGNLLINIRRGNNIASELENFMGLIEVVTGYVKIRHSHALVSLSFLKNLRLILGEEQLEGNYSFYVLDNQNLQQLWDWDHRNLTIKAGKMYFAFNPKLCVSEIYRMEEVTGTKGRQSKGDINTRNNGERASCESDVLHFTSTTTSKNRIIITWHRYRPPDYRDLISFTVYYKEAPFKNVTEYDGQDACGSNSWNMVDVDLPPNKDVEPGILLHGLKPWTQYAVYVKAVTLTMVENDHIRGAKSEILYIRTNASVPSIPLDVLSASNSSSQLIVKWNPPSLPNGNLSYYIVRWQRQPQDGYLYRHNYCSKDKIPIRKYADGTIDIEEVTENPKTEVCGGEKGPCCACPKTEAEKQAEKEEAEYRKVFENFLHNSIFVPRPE
Sequence of Insulin-like growth factor 1 receptor (Homo sapiens) (P08069 741-1367 limits assumed): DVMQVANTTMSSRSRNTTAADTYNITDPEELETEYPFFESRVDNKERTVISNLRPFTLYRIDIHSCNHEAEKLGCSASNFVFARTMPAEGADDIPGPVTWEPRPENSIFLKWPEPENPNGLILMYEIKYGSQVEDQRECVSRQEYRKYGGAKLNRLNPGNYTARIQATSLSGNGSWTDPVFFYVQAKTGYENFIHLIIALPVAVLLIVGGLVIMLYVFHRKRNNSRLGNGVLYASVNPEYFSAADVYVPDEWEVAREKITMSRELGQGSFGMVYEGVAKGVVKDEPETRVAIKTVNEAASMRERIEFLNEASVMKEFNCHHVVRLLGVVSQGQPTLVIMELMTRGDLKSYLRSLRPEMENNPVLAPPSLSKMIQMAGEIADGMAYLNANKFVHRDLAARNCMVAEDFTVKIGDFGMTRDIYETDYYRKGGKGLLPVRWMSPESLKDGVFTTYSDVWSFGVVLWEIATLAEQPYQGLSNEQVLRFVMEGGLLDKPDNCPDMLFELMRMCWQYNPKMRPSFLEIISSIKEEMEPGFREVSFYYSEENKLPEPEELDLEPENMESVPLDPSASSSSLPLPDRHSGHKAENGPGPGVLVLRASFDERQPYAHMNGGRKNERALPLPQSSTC
Sequence of Dual specificity tyrosine-phosphorylation-regulated kinase 2 (Homo sapiens) (Q92630 whole entry): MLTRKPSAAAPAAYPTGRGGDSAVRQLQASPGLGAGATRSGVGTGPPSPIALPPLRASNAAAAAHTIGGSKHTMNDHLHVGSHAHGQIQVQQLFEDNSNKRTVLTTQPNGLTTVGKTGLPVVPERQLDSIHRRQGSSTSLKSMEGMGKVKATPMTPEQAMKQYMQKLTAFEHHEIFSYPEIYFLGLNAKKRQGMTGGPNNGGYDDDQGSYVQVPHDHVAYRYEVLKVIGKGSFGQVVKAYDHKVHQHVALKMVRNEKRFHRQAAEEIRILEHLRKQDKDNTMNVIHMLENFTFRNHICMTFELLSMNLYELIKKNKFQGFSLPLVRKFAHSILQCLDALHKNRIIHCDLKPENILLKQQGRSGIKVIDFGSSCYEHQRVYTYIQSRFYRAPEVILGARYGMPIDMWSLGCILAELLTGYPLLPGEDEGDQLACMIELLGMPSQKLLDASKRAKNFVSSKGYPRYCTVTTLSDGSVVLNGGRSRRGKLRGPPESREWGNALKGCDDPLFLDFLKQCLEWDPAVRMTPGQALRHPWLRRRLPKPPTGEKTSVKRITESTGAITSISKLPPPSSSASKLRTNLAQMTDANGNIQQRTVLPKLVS
Sequence of Interleukin-1 receptor-associated kinase 4 (Homo sapiens) (Q9NWZ3 whole entry): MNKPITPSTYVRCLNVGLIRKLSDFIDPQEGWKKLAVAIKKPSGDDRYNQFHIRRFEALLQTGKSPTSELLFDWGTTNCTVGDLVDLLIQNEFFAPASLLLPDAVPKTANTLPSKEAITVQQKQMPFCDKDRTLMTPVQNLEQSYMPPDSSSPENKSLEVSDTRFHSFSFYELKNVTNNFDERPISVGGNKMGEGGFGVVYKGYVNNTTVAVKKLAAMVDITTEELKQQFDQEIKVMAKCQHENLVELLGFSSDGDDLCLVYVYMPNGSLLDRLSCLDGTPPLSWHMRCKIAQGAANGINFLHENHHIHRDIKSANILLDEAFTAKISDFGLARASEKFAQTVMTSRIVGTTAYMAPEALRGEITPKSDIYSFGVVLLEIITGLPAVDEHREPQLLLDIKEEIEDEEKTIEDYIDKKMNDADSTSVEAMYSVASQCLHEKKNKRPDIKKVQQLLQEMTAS

## CNC(=O)c1ccc(Nc2ncc(C(F)(F)F)c(NCc3nccnc3N(C)S(C)(=O)=O)n2)cc1 [DEFACTINIB]
[1]; [41]
  residual activity: 95%
[2]; [41]
  residual activity: 100%
[3]; [41]
  residual activity: 79%
[4]; [41]
  residual activity: 76%
[5]; [41]
  residual activity: 87%
[6]; [41]
  residual activity: 85%
[7]; [41]
  residual activity: 65%
[8]; [41]
  residual activity: 50%
[9]; [41]
  residual activity: 87%
[10]; [41]
  residual activity: 84%
[11]; [41]
  residual activity: 100%
[12]; [41]
  residual activity: 69%
[13]; [41]
  residual activity: 98%
[14]; [41]
  residual activity: 47%
[15]; [41]
  residual activity: 100%
[16]; [41]
  residual activity: 68%
[17]; [41]
  residual activity: 100%
[18]; [41]
  residual activity: 68%
[19]; [41]
  residual activity: 88%
[20]; [41]
  residual activity: 96%
[21]; [41]
  residual activity: 100%
[22]
  inhibition: -0.22%
[23]; [41]
  residual activity: 36%
[24]; [41]
  residual activity: 91%
[25]; [41]
  residual activity: 100%
[26]; [41]
  residual activity: 37%
[27]; [41]
  residual activity: 100%
[28]; [41]
  residual activity: 82%
[29]; [41]
  residual activity: 54%
[30]; [41]
  residual activity: 95%
[31]; [41]
  residual activity: 92%
[32]; [41]
  residual activity: 100%
[33]; [41]
  residual activity: 100%
[34]
  inhibition: 12.5%
[35]; [41]
  residual activity: 84%
[36]; [41]
  residual activity: 100%
[37]; [41]
  residual activity: 93%
[38]; [41]
  residual activity: 100%
[39]; [41]
  residual activity: 58%
[40]; [41]
  residual activity: 85%

## CN(c1ccnc(CNc2nc(Nc3ccc4c(c3)CC(=O)N4)ncc2C(F)(F)F)n1)S(C)(=O)=O [PF-00911705]
[1]; [42]
  residual activity: 13%
[2]; [42]
  residual activity: 79%
[3]; [42]
  residual activity: 100%
[4]; [42]
  residual activity: 37%
[5]; [42]
  residual activity: 53%
[6]; [42]
  residual activity: 87%
[7]; [42]
  residual activity: 3.6%
[8]; [42]
  residual activity: 14%
[9]; [42]
  residual activity: 100%
[10]; [42]
  residual activity: 100%
[11]; [42]
  residual activity: 94%
[12]; [42]
  residual activity: 26%
[13]; [42]
  residual activity: 10%
[14]; [42]
  residual activity: 14%
[15]; [42]
  residual activity: 49%
[16]; [42]
  residual activity: 26%
[17]; [42]
  residual activity: 93%
[18]; [42]
  residual activity: 87%
[19]; [42]
  residual activity: 85%
[20]; [42]
  residual activity: 62%
[21]; [42]
  residual activity: 94%
[22]
  inhibition: 0.5%
[23]; [42]
  residual activity: 100%
[24]; [42]
  residual activity: 100%
[25]; [42]
  residual activity: 73%
[26]; [42]
  residual activity: 54%
[27]; [42]
  residual activity: 90%
[28]; [42]
  residual activity: 61%
[29]; [42]
  residual activity: 35%
[30]; [42]
  residual activity: 15%
[31]; [42]
  residual activity: 50%
[32]; [42]
  residual activity: 61%
[33]; [42]
  residual activity: 63%
[34]
  inhibition: 5.78%
[35]; [42]
  residual activity: 7.6%
[36]; [42]
  residual activity: 77%
[37]; [42]
  residual activity: 84%
[38]; [42]
  residual activity: 91%
[39]; [42]
  residual activity: 52%
[40]; [42]
  residual activity: 85%
